Measurements as given in US20250152585A1, “PHARMACEUTICAL COMPOUND” (Duke Street Bio Limited, priority 2022, published 2025).

What was measured:
[1] = molecular target: T1, N-terminally FLAG-tagged PARP2 (amino acids 1-583) (Homo sapiens, UniProt Q9UGN5); test: PARP2 probe displacement HTRF assay; format: binding; details: binned Kd, probe displacement HTRF
T1 construct: N-terminally FLAG-tagged PARP2 (amino acids 1-583)
Description: Data analysis was performed identical as for PARP1.

[2] = molecular target: T2, full length N-terminally FLAG-tagged PARP1 (Homo sapiens, UniProt P09874); test: PARP1 probe displacement HTRF assay; details: probe displacement HTRF; for Selectivity: PARP1 over PARP2, ratio Kd (PARP2)/Kd (PARP1); for Kd: read-out: PARP1 HTRF, binned Kd
[3] = molecular target: T2, full length N-terminally FLAG-tagged PARP1; test: PARP1 biochemical DELFIA assay (auto-PARylation); parameters: recombinant full length human N-terminally FLAG-tagged PARP1; details: binned IC50, biochemical auto-PARylation assay

T1 sequence (Q9UGN5 whole entry, the tested form may be a part): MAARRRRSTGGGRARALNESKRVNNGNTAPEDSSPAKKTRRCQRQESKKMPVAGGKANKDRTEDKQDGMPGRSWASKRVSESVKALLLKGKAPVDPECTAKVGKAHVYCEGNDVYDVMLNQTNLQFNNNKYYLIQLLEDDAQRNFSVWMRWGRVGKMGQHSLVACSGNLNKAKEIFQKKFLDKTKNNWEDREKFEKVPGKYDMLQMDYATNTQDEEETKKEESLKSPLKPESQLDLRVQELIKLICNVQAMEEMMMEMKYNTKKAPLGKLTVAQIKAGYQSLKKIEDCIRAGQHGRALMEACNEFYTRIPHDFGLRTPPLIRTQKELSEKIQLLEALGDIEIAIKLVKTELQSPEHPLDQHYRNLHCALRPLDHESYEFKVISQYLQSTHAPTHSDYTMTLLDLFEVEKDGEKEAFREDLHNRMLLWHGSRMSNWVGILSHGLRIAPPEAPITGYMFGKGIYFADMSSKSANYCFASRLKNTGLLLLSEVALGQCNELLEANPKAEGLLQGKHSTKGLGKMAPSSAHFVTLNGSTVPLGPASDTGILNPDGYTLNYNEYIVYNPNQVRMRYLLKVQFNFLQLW
T2 sequence (P09874 whole entry): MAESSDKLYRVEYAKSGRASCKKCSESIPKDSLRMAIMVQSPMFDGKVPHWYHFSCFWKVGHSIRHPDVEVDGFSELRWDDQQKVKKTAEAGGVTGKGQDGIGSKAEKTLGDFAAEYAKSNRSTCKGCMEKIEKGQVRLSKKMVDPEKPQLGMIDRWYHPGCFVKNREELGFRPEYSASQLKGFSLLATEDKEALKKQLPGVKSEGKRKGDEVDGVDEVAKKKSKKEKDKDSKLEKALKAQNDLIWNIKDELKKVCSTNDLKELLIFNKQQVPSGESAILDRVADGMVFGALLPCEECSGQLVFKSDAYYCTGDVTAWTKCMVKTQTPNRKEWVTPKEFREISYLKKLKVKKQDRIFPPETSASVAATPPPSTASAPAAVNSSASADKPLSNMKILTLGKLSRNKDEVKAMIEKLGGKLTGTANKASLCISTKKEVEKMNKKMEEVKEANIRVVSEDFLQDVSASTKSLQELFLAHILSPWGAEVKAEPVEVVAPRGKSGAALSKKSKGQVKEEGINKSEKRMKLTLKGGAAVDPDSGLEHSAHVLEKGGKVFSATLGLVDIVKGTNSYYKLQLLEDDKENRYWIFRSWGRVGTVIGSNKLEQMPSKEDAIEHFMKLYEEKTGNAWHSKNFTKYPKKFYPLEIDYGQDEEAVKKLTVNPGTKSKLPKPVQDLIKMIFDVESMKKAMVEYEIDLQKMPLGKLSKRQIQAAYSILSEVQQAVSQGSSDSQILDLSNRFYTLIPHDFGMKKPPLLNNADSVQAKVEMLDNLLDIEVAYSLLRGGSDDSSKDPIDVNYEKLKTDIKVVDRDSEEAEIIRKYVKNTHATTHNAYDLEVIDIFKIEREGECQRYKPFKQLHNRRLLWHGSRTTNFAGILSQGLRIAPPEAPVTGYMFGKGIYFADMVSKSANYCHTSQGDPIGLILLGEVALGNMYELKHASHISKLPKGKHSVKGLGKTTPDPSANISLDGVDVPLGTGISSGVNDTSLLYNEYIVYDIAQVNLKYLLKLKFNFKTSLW

Row | SMILES | Kd [1] [nM] | Kd [2] [nM] | IC50 [3] [nM] | Selectivity [2]
1 | O=c1[nH]c(C2CCN(C3CCN(c4ccc(OC(F)F)nc4)CC3)C2)cc2ccc(F)cc12 (single isomer, unassigned) [Compound 374a] | 100 to 1000 | 10 to 100 | 10 to 100 | + (+ indicates a value of 10 to less than 50)
2 | O=c1[nH]c(C2CCN(C3CCN(c4ccc(OC(F)F)nc4)CC3)C2)cc2ccc(F)cc12 (single isomer, unassigned) [Compound 374b] | 10 to 100 | < 10 | < 10 | ++ (++ indicates a value of 50 to less than 100)
3 | CCc1ccc(C2CCN(C3CCN(c4ccc(C#N)cc4Cl)CC3)C2)[nH]c1=O (single isomer, unassigned) [Compound 377a] | > 10000 | 10 to 100 | 10 to 100 | +++ (+++ indicate a value of at least 100)
4 | CCc1ccc(C2CCN(C3CCN(c4ccc(C#N)cc4Cl)CC3)C2)[nH]c1=O (single isomer, unassigned) [Compound 377b] | 1000 to 10000 | < 10 | < 10 | +++ (+++ indicate a value of at least 100)
5 | N#Cc1ccc(N2CCC(N3CCC(c4cc5cccc(F)c5c(=O)[nH]4)C3)CC2)c(Cl)c1 (single isomer, unassigned) [Compound 378a] | 100 to 1000 | < 10 | < 10 | +++ (+++ indicate a value of at least 100)
6 | N#Cc1ccc(N2CCC(N3CCC(c4cc5cccc(F)c5c(=O)[nH]4)C3)CC2)c(Cl)c1 (single isomer, unassigned) [Compound 378b] | 1000 to 10000 | < 10 | < 10 | +++ (+++ indicate a value of at least 100)
7 | CCc1ccc(C2CCN(C3CCN(c4ccc(OC(F)F)nc4)CC3)C2)[nH]c1=O (single isomer, unassigned) [Compound 382a] | > 10000 | 100 to 1000 | 100 to 1000 | + (+ indicates a value of 10 to less than 50)
8 | CCc1ccc(C2CCN(C3CCN(c4ccc(OC(F)F)nc4)CC3)C2)[nH]c1=O (single isomer, unassigned) [Compound 382b] | 100 to 1000 | < 10 | < 10 | +++ (+++ indicate a value of at least 100)
9 | N#Cc1ccc(N2CCC(N3CCC(c4cc5ccc(F)cc5c(=O)[nH]4)C3)CC2)c(F)c1 (single isomer, unassigned) [Compound 385a] | 1000 to 10000 | < 10 | < 10 | +++ (+++ indicate a value of at least 100)
10 | N#Cc1ccc(N2CCC(N3CCC(c4cc5ccc(F)cc5c(=O)[nH]4)C3)CC2)c(F)c1 (single isomer, unassigned) [Compound 385b] | 10 to 100 | < 10 | < 10 | +++ (+++ indicate a value of at least 100)
11 | N#Cc1ccc(N2CCC(N3CCC(c4cc5ccc(F)cc5c(=O)[nH]4)C3)CC2)c(Cl)c1 (single isomer, unassigned) [Compound 386b] | 1000 to 10000 | < 10 | < 10 | +++ (+++ indicate a value of at least 100)
12 | O=C(NCC(F)F)c1ccc(N2CCC(N3CCC(c4cc5cccc(F)c5c(=O)[nH]4)C3)CC2)c(F)n1 (single isomer, unassigned) [Compound 390a] | 100 to 1000 | < 10 | < 10 | +++ (+++ indicate a value of at least 100)
13 | O=C(NCC(F)F)c1ccc(N2CCC(N3CCC(c4cc5cccc(F)c5c(=O)[nH]4)C3)CC2)c(F)n1 (single isomer, unassigned) [Compound 390b] | 10 to 100 | < 10 | < 10 | ++ (++ indicates a value of 50 to less than 100)
14 | CNC(=O)c1ncc(N2CCC(N3CCC(c4cc5ccc(F)cc5c(=O)[nH]4)C3)CC2)cc1F (single isomer, unassigned) [Compound 395b] | 10 to 100 | < 10 | < 10 | ++ (++ indicates a value of 50 to less than 100)
15 | CNC(=O)c1ccc(N2CCC(N3CCC(c4cc5ccc(F)cc5c(=O)[nH]4)C3)CC2)c(C#N)n1 (single isomer, unassigned) [Compound 396a] | 100 to 1000 | < 10 | < 10 | +++ (+++ indicate a value of at least 100)
16 | CNC(=O)c1ccc(N2CCC(N3CCC(c4cc5ccc(F)cc5c(=O)[nH]4)C3)CC2)c(C#N)n1 (single isomer, unassigned) [Compound 396b] | 100 to 1000 | < 10 | < 10 | +++ (+++ indicate a value of at least 100)
17 | N#Cc1nc(C(=O)NC2CC2)ccc1N1CCC(N2CCC(c3cc4ccc(F)cc4c(=O)[nH]3)C2)CC1 (single isomer, unassigned) [Compound 397a] | 100 to 1000 | < 10 | < 10 | +++ (+++ indicate a value of at least 100)
18 | O=C(NCC(F)F)c1ccc(N2CCC(N3CCC(c4cc5ccc(F)cc5c(=O)[nH]4)C3)CC2)c(F)n1 (single isomer, unassigned) [Compound 399a] | 100 to 1000 | < 10 | < 10 | +++ (+++ indicate a value of at least 100)
19 | CNC(=O)c1ccc(N2CCC(N3CCC(c4[nH]c(=O)c5cc(F)ccc5c4F)C3)CC2)cn1 (single isomer, unassigned) [Compound 401b] | 10 to 100 | < 10 | < 10 | + (+ indicates a value of 10 to less than 50)
20 | CNC(=O)c1ccc(N2CCC(N3CCC(c4cc5c(c(C(F)(F)F)nn5C)c(=O)[nH]4)C3)CC2)c(F)n1 (single isomer, unassigned) [Compound 407a] | 100 to 1000 | < 10 | 10 to 100 | ++ (++ indicates a value of 50 to less than 100)
21 | CNC(=O)c1ccc(N2CCC(N3CCC(c4cc5c(c(C(F)(F)F)nn5C)c(=O)[nH]4)C3)CC2)c(F)n1 (single isomer, unassigned) [Compound 407b] | < 10 | < 10 | < 10 | + (+ indicates a value of 10 to less than 50)

Further lines, with some results ahead:

Row | Kd [1] [nM] | Kd [2] [nM] | IC50 [3] [nM] | SMILES | Selectivity [2]
22 | 100 to 1000 | < 10 | < 10 | N#Cc1ccc(N2CCC(N3CCC(c4cc5ccc(F)cc5c(=O)[nH]4)C3)CC2)c(Cl)c1 (single isomer, unassigned) [Compound 386a] | +++ (+++ indicate a value of at least 100)
23 | 100 to 1000 | < 10 | < 10 | CNC(=O)c1ncc(N2CCC(N3CCC(c4cc5ccc(F)cc5c(=O)[nH]4)C3)CC2)cc1F (single isomer, unassigned) [Compound 395a] | + (+ indicates a value of 10 to less than 50)
24 | 10 to 100 | < 10 | < 10 | N#Cc1nc(C(=O)NC2CC2)ccc1N1CCC(N2CCC(c3cc4ccc(F)cc4c(=O)[nH]3)C2)CC1 (single isomer, unassigned) [Compound 397b] | +++ (+++ indicate a value of at least 100)
25 | 1000 to 10000 | < 10 | < 10 | CCc1ccc(C2CCN(C3CCN(c4ccc(C(=O)NCC(F)F)nc4F)CC3)C2)[nH]c1=O (single isomer, unassigned) [Compound 398a] | +++ (+++ indicate a value of at least 100)
26 | 100 to 1000 | < 10 | < 10 | CCc1ccc(C2CCN(C3CCN(c4ccc(C(=O)NCC(F)F)nc4F)CC3)C2)[nH]c1=O (single isomer, unassigned) [Compound 398b] | +++ (+++ indicate a value of at least 100)
27 | 10 to 100 | < 10 | < 10 | O=C(NCC(F)F)c1ccc(N2CCC(N3CCC(c4cc5ccc(F)cc5c(=O)[nH]4)C3)CC2)c(F)n1 (single isomer, unassigned) [Compound 399b] | + (+ indicates a value of 10 to less than 50)
28 | 10 to 100 | < 10 | < 10 | CNC(=O)c1ccc(N2CCC(N3CCC(c4[nH]c(=O)c5cc(F)ccc5c4F)C3)CC2)cn1 (single isomer, unassigned) [Compound 401a] | +++ (+++ indicate a value of at least 100)
29 | 100 to 1000 | < 10 | < 10 | CNC(=O)c1ccc(N2CCC(N3CCC(c4[nH]c(=O)c5c(F)cccc5c4F)C3)CC2)c(F)n1 (single isomer, unassigned) [Compound 402a] | +++ (+++ indicate a value of at least 100)
30 | 10 to 100 | < 10 | < 10 | CNC(=O)c1ccc(N2CCC(N3CCC(c4[nH]c(=O)c5c(F)cccc5c4F)C3)CC2)c(F)n1 (single isomer, unassigned) [Compound 402b] | +++ (+++ indicate a value of at least 100)
31 | 1000 to 10000 | 10 to 100 | 10 to 100 | CNC(=O)c1ccc(N2CCC(N3CCC(c4[nH]c(=O)c5ccccc5c4C(F)(F)F)C3)CC2)cn1 (single isomer, unassigned) [Compound 404a] | +++ (+++ indicate a value of at least 100)
32 | 1000 to 10000 | < 10 | < 10 | CNC(=O)c1ccc(N2CCC(N3CCC(c4[nH]c(=O)c5ccccc5c4C(F)(F)F)C3)CC2)cn1 (single isomer, unassigned) [Compound 404b] | +++ (+++ indicate a value of at least 100)
